In publication PMC12114375, “Discovery of Hydrazineyl Amide Derivative of Pseudolaric Acid B for Reprogramming Tumor-Associated Macrophages Against Tumor Growth” (Molecules, 2025):

Columns and labels:
[1] = test system: ARG1 mRNA expression in RAW 264.7 cells; experiment: qRT-PCR of ARG1 mRNA in IL-4/IL-13-stimulated RAW 264.7 cells; format: cell-based, mouse; settings: Mus musculus, RAW264.7, IL-4/IL-13 (20 ng/mL) plus compound 10 μM, 12 h, stimulated control = 100%, mean ± SD, read-out: ARG1 mRNA Relative Expression (%)
Text: We first investigated the impacts of a series of commercially available natural pseudolaric acids or their O-pyranosides (Figure 1) on the pro-tumoral phenotype of TAMs, which play a critical role in anti-tumor immune response modulation. […] In contrast, M1-biased macrophages combat tumor growth and bacterial infections by expressing inducible nitric oxide synthase 2 (NOS2), which catalyzes the production of nitric oxide (NO). Recognizing the pivotal roles of ARG1 and NOS2, we utilized these molecules as key biomarkers and effectors for assessing macrophage immune function. In our experiments, the mouse monocyte–macrophage leukemia cell line RAW 264.7 was induced with IL-4/IL-13 to acquire an M2-like pro-tumoral phenotype. Concurrently, the cells were treated with the pseudolaric acid-related natural products 1–7 at a concentration of 10 μM for 12 h. Additionally, PLX3397 was used as a positive control at a concentration of 0.5 μM. […] As shown in Table 1 and Figure S1A, pseudolaric acid B (1), its deacetoxyl analogue 2 (pseudolaric acid C), and β-D-glucoside 7 substantially attenuated the upregulation of ARG1 mRNA expression induced by IL-4/IL-13, with statistically significant effects. In contrast, bis-carboxylic acids analogs 4 (pseudolaric acid C2) and 6 (demethoxydeacetoxypseudolaric acid B) have no significant impact on ARG1 mRNA expression.
With these carboxylic acid-modified derivatives in hand, we investigated their impact at 10 μM on ARG1 and NOS2 mRNA expression in RAW 264.7 cells pre-stimulated with IL-4/IL-13 to evaluate the effects on the pro-tumor phenotype of macrophages. […] Further removal of one hydroxyl from the glycerol moiety 15 further enhanced the inhibitory effect on ARG1 expression but had no significant impact on NOS2 expression.
Total RNA was isolated from cells using the EZ-press RNA Purification Kit (EZBioscience, Suzhou, China) and subjected to reverse transcription with the 5×HiScript II qRT SuperMix II (Vazyme, Nanjing, China). PCR was performed with the 2×ChamQ Universal SYBR qPCR Master Mix (Vazyme, Nanjing, China). All primers for qRT-PCR are described in Table S1. The 2^−∆∆Ct method was utilized to calculate the fold change in gene expression, with the expression levels in the stimulated group set as the baseline for normalization.

Hepa1-6 tumor = experiment: In vivo anti-tumor efficacy, Hepa1-6 subcutaneous tumor model; settings: Hepa1-6 model; for tumor growth inhibitory rate: intraperitoneal injections, once daily
Text: (§1) Encouraged by its intriguing cellular activities, we investigated the anti-tumor effect of compound 12 in vivo. The Hepa1-6 liver cancer model, an immunocompetent macrophage-rich subcutaneous murine tumor model, was thus established. […] To further investigate whether the in vivo anti-tumor effect of compound 12 is associated with its inhibition of pro-tumoral macrophages and consequent activation of anti-tumor CD8^+ T cells, we analyzed the infiltration of macrophages and CD8^+ T cells in the tumor tissue of the Hepa1-6 model.
Animal procedures were approved by the Institutional Animal Care and Use Committee of the Shanghai Institute of Materia Medica (approval no. 2024-06-DJ-95). Mice (4–6 weeks old) were housed with five or six mice per cage in a specific pathogen-free room with a 12 h light/dark schedule at 25 °C ± 1 °C and were fed an autoclaved chow diet and water ad libitum. Hepa1-6 cells (2 × 10^6 cells) were subcutaneously implanted in the right flank of C57 BL/6 mice. […] The tumor volumes and body weights were measured twice per week. Tumor volume (TV) was calculated as follows: TV = (length × width^2)/2. Significant differences between the treated versus the vehicle groups were determined using the Student’s t-test. […] Viability was determined by staining with either the LIVE/DEAD® Fixable Violet Dead Cell Stain Kit (Invitrogen, Waltham, […], USA) or the Zombie Aqua™ Fixable Viability Kit (Biolegend, San Diego, CA, USA). Data were analyzed using FlowJo10.4 software.
Figure 4 Compound 12 inhibited Hepa1-6 tumor growth in vivo and remodeled the tumor microenvironment. […] The TVs (A) and body weights (B) are presented as the mean ± SEM. * p < 0.05 vs. the vehicle group, determined by the Student’s t-test. […] The infiltration of CD45^+ cells (C), TAMs (D), CD206^+ TAMs (E), ARG1^+ TAMs (F), CD8^+ T cells (G), GRZB^+ CD8^+ T cells (H), IFN γ^+ CD8^+ T cells (I), and TNF α^+ CD8^+ T cells (J) was tested (n = 8 mice in the vehicle group and n = 7 mice in the 12-treated group). * p < 0.05, ** p < 0.01, *** p < 0.001 vs. the vehicle group, determined by the Student’s t-test.

[2] = test system: tumor-infiltrating immune cells in Hepa1-6 tumor; experiment: Flow cytometric analysis of tumor-infiltrating immune cells in the Hepa1-6 model; format: in vivo, C57 BL/6 mice; settings: Hepa1-6 tumor tissue, 25 mg/kg, 2 h after the last treatment
Text: as §1
Animal procedures were approved by the Institutional Animal Care and Use Committee of the Shanghai Institute of Materia Medica (approval no. 2024-06-DJ-95). Mice (4–6 weeks old) were housed with five or six mice per cage in a specific pathogen-free room with a 12 h light/dark schedule at 25 °C ± 1 °C and were fed an autoclaved chow diet and water ad libitum. Hepa1-6 cells (2 × 10^6 cells) were subcutaneously implanted in the right flank of C57 BL/6 mice. When the tumors reached a volume of around 50 mm^3, the mice were randomized into the treatment groups. The vehicle groups were given the vehicle alone, and the treatment groups received compound 1 in the indicated doses via intratumoral injections once daily on the indicated days. The tumor volumes and body weights were measured twice per week. Tumor volume (TV) was calculated as follows: TV = (length × width^2)/2. Significant differences between the treated versus the vehicle groups were determined using the Student’s t-test. […] Consequently, the sample size for this treatment group was reduced to 7. Hepa1-6 tumor tissues were minced and digested using a Mouse Tumor Dissociation Kit (Miltenyi, Bergisch Gladbach, Germany). The cells were passed through a 70 μm cell strainer, stained with a fluorescent antibody or the matching isotype controls for 30 min at room temperature, and then tested using a BD CytoFLEX LX (Beckman). […] Viability was determined by staining with either the LIVE/DEAD® Fixable Violet Dead Cell Stain Kit (Invitrogen, Waltham, […], USA) or the Zombie Aqua™ Fixable Viability Kit (Biolegend, San Diego, CA, USA). Data were analyzed using FlowJo10.4 software.
Figure 4 Compound 12 inhibited Hepa1-6 tumor growth in vivo and remodeled the tumor microenvironment. […] The TVs (A) and body weights (B) are presented as the mean ± SEM. * p < 0.05 vs. the vehicle group, determined by the Student’s t-test. […] The infiltration of CD45^+ cells (C), TAMs (D), CD206^+ TAMs (E), ARG1^+ TAMs (F), CD8^+ T cells (G), GRZB^+ CD8^+ T cells (H), IFN γ^+ CD8^+ T cells (I), and TNF α^+ CD8^+ T cells (J) was tested (n = 8 mice in the vehicle group and n = 7 mice in the 12-treated group). * p < 0.05, ** p < 0.01, *** p < 0.001 vs. the vehicle group, determined by the Student’s t-test. […]

In the case of `COC(=O)C1=CC[C@@]23CC[C@@H]([C@@](C)(/C=C/C=C(\C)C(=O)NNCCO)OC2=O)[C@@]3(OC(C)=O)CC1` [compound 12, Methyl(3R,4S,4aS,9aR)-4a-acetoxy-3-((1E,3E)-5-(2-(2-hydroxyethyl)hydrazineyl)-4-methyl-5-oxopenta-1,3-dien-1-yl)-3-methyl-1-oxo-3,4,4a,5,6,9-hexahydro-1H-4,9a-ethanocyclohepta[c]pyran-7-carboxylate], the mrna remaining at 10 µM [1] is reported as 1.4 ± 1.1%, the “body weight during the treatment” value (Hepa1-6 tumor; 25 and 50 mg/kg) is reported as “no obvious loss of body weight” and the “tumor growth inhibitory rate” value (Hepa1-6 tumor; 25 mg/kg) is reported as 53.2%. For the same compound, the “tumor growth inhibitory rate” value (Hepa1-6 tumor; 50 mg/kg) was 48.3%, the “TAMs with the M1-like phenotype (CD86+ TAMs, MHC II+ TAMs)” value [2] was “marginal upregulation” and the “infiltration of CD8+ T cells and activated (GRZB+, IFNγ+, TNFα+) CD8+ T cells in CD45+ cells” value [2] was “significantly upregulated”. The “infiltration of total immune cells (CD45+ cells)” value [2] was “increasing trend” and the “tumor infiltration of total TAMs, CD206+ TAMs and ARG1+ TAMs in CD45+ cells” value [2] was “significantly reduced”.
